Where two headings read alike, the source gives them in different places.
What was measured:
[1] = system: platelets (aggregation induced with collagen, arachidonic acid, ADP or PAF); experiment: Effect in inhibiting aggulutination of platelets (in vitro), human platelet-rich plasma; assay type: cell-based
Description: 1. Effect in inhibiting aggulutination of platelets […]
The blood was collected from a human cubital vein in such a manner as to contain a 3.8% solution of sodium citrate in an amount 1.10 time by volume as much as the blood. Then platelet-rich plasma (PRP) was prepared therefrom according to the method reported by Packham et al. (ct. Packham, M. A., et al, J. Exp. Med., 126, 171-189 (1967)). To 0.2 ml of the obtained PRP, 25 μl portions of solutions of each compound of the present invention (A to E) at various concentrations were added and incubated at 37° C. for three minutes. Then the aggultination of platelets was induced with arachidonic acid, collagen, ADP and PAF. The aggulutination of platelets was evaluated according to the method reported by Mustard et al. (cf. Mustard, J. F., et al., J. Lab. Clin. Med., 64, 548-559 […] with the use of an aggregometer available from Schenko or Niko Bioscience Co. In other words, this test is carried out to examine the effect of platelet aggregation (in vitro).
(§1) The tests were conducted in the same way as shown before from the diphenylethylene derivative. Results for inhibition of aggulutination are shown in Table 3 for the in-vitro test and in Table for the ex-vivo test. The acute toxicity test provided the same results as obtained with the diphenylethylene derivative.

[2] = system: platelets (aggregation induced by collagen or arachidonic acid); experiment: Effect of inhibiting aggultination of platelets (ex vivo), oral administration to guinea pigs; assay type: in vivo; settings: Cavia porcellus, Platelet, 2 h
Description: 2. Effect of inhibiting aggultination of platelets (ex vivo)
The compound A to E, which were typical examples of the compound of the present invention, were orally administered to guinea pigs. After two hours, the blood of each animal was collected from the abdominal aorta thereof under etherization. Then the effect of each compound on the aggultination of platelets induced by collagen (3 μg/ml) and arachidonic acid (50 μM) was examined. […] In other words, this test is conducted to examine the effect of platelet aggregation (ex vivo).
as §1

[3] = ADP-induced, human PRP, incubated at 37° C. for three minutes, in vitro, read-out: Effect of inhibiting ADP aggultination IC50
[4] = PAF-induced, human PRP, incubated at 37° C. for three minutes, in vitro, read-out: Effect of inhibiting PAF aggultination IC50
[5] = arachidonic acid-induced, human PRP, incubated at 37° C. for three minutes, in vitro, read-out: Effect of inhibiting arachidonic acid aggultination IC50
[6] = collagen-induced, human PRP, incubated at 37° C. for three minutes, in vitro, read-out: Effect of inhibiting collagen aggultination IC50
[7] = guinea pigs, oral, two hours after administration, arachidonic acid (50 μM), ex vivo, read-out: Effect of inhibiting arachidonic acid aggultination ED50
[8] = guinea pigs, oral, two hours after administration, collagen (3 μg/ml), ex vivo, read-out: Effect of inhibiting collagen aggultination ED50

Structure (SMILES) | IC50 [1, 3] | IC50 [1, 4] | IC50 [1, 5] | IC50 [1, 6] | ED50 [2, 7] | ED50 [2, 8] | IC50 ([1]; Homo sapiens, read-out: Effect of inhibiting ADP aggultination IC50) | IC50 ([1]; Homo sapiens, read-out: Effect of inhibiting PAF aggultination IC50) | IC50 ([1]; Homo sapiens, read-out: Effect of inhibiting arachidonic acid aggultination IC50) | IC50 ([1]; Homo sapiens, read-out: Effect of inhibiting collagen aggultination IC50) | ED50 ([2]; po, read-out: Effect of inhibiting arachidonic acid aggultination ED50) | ED50 ([2]; po, read-out: Effect of inhibiting collagen aggultination ED50)
COc1ccc(C(=CC(=O)NCc2ccccc2)c2ccc(OC)cc2)cc1 [Cpd. A, N-Benzyl-3,3-bis(4-methoxyphenyl)acrylamide] | 5 µM | 15 µM | 5 µM | 20 µM | 100 mg/kg | 100 mg/kg |  |  |  |  |  | 
COc1ccc(C(=CCNS(=O)(=O)c2ccccc2)c2ccc(OC)cc2)cc1 [Cpd. B, N-[3,3-Bis(4-methoxyphenyl)allyl]benzensulfonamide] | 2 µM | 2.5 µM | 0.9 µM | 1.4 µM | 20 mg/kg | 20 mg/kg |  |  |  |  |  | 
CCOC(=O)CCC(C#N)=C(c1ccc(OC)cc1)c1ccc(OC)cc1 [Cpd. C, Ethyl 4-cyano-5,5-bis(4-methoxyphenyl)-4-pentenoate] | 0.2 µM | 1.8 µM | 0.07 µM | 0.2 µM | 0.03 mg/kg | 0.05 mg/kg |  |  |  |  |  | 
COc1ccc(C(=C(C#N)CCC(=O)O)c2ccc(OC)cc2)cc1 [Cpd. D, 4-Cyano-5,5-bis(4-methoxyphenyl)4-pentenoic acid] |  |  |  |  |  |  | 1.9 µM | 2.8 µM | 0.8 µM | 1.7 µM | 0.03 mg/kg | 0.05 mg/kg
COC(=O)CCCC(C#N)=C(c1ccc(OC)cc1)c1ccc(OC)cc1 [Cpd. E, Methyl 5-cyano-6,6-bis(4-methoxyphenyl)-5-hexenoate] | 0.2 µM | 1.3 µM | 0.06 µM | 0.15 µM | 0.3 mg/kg | 1 mg/kg |  |  |  |  |  | 
CCOC(=O)CC(=O)CON=C(c1ccc(OC)cc1)c1ccc(OC)cc1 [Cpd. L, 4,4'-dimethoxybenzophenone-O-(3-ethoxycarbonyl-2-oxopropyl)oxime] | 0.8 µM | 1.2 µM | 0.1 µM | 0.5 µM | 30 mg/kg | 30 mg/kg |  |  |  |  |  | 
CCOC(=O)CC(CON=C(c1ccc(OC)cc1)c1ccc(OC)cc1)=NOC [Cpd. M, 4,4'-Dimethoxybenzophenone O-(3-ethoxycarbonyl-2-methoxyiminopropyl)oxime] | 13.2 µM | 20 µM | 12.5 µM | 14 µM | 55 mg/kg | 55 mg/kg |  |  |  |  |  | 
CON=C(CON=C(c1ccc(OC)cc1)c1ccc(OC)cc1)CC(=O)O [Cpd. N, 4,4'-Dimethoxybenzophenone O-(3-carboxy-2-methoxyiminopropyl)oxime] | 5 µM | 4.1 µM | 0.7 µM | 2.8 µM | 0.3 mg/kg | 1.3 mg/kg |  |  |  |  |  | 
CCOC(=O)CCC(C#N)ON=C(c1ccc(OC)cc1)c1ccc(OC)cc1 (centres unmarked) [Cpd. O, 4,4'Dimethoxybenzophenone O-(1-cyano-3-ethoxycarbonylpropyl)oxime] | 20 µM | 14.5 µM | 7 µM | 14 µM | 0.3 mg/kg | 1 mg/kg |  |  |  |  |  | 
COc1ccc(C(=NOC(C#N)CCC(=O)O)c2ccc(OC)cc2)cc1 (centres unmarked) [Cpd. P, 4,4'-Dimethoxybenzophenone O-(1-cyano-3-carboxypropyl)oxime] | 2.7 µM | 1.5 µM | 0.4 µM | 1.1 µM | 0.3 mg/kg | 1.1 mg/kg |  |  |  |  |  | 
COC(=O)CCCC(C#N)ON=C(c1ccc(OC)cc1)c1ccc(OC)cc1 (centres unmarked) [Cpd. Q, 4,4'-Dimethoxybenzophenone O-(1-cyano-4-methoxycarbonylbutyl)oxime] | 35 µM | 37 µM | 12 µM | 36 µM | 50 mg/kg | 88 mg/kg |  |  |  |  |  | 
COc1ccc(C(=NOC(C#N)CCCC(=O)O)c2ccc(OC)cc2)cc1 (centres unmarked) [Cpd. R, 4,4'-Dimethoxybenzophenone O-(1-cyano-4-carboxybutyl)oxime] | 85 µM | 79 µM | 50 µM | 80 µM | ≤ 100 mg/kg | ≤ 100 mg/kg |  |  |  |  |  | 
Clc1ccccc1CN1CCc2sccc2C1 [Ticlopidine, reference compound] |  |  |  |  | 150 mg/kg | ≤ 200 mg/kg |  |  |  |  |  | 

Reference: patent US4954523A, “Benzophenone oxime ether compounds, pharmaceutical compositions and treatment methods” (Eisai Co., Ltd., priority 1986, dated 1990)
